Laboratory results from ChEMBL document CHEMBL1129577, “Identification of a novel oxazolidinone (U-100480) with potent antimycobacterial activity” (1996).
In brackets after ≈: the same amount, converted by molar mass.

Columns and labels:
Assay type in all cases: functional
[1] = test system: Mycobacterium tuberculosis; test: In vitro anti-mycobacterial activity against multiple sensitive strains of Mycobacterium tuberculosis at 2 ug/mL
[2] = test system: Mycobacterium tuberculosis; test: In vitro anti-mycobacterial activity against multiple sensitive strains of Mycobacterium tuberculosis at 0.50 ug/mL
[3] = test system: Mycobacterium tuberculosis; test: In vitro anti-mycobacterial activity against multiple sensitive strains of Mycobacterium tuberculosis at 0.125 ug/mL
[4] = test system: Mycobacterium tuberculosis; test: Compound was evaluated for in vitro anti-mycobacterial activity against Mycobacterium tuberculosis
Mycobacterium malmoense = test: Compound was evaluated for in vitro anti-mycobacterial activity against Mycobacterium malmoense
[5] = test system: Mycobacterium tuberculosis; test: In vitro anti-mycobacterial activity against multiple sensitive strains of Mycobacterium tuberculosis at 0.03 ug/mL
Mycobacterium avium [6] = test: Compound was evaluated for in vitro anti-mycobacterial activity against Mycobacterium avium complex by 90%
Mycobacterium avium [7] = test: Compound was evaluated for in vitro anti-mycobacterial activity against Mycobacterium avium complex by 50%
[8] = test system: Mycobacterium tuberculosis; test: Compound was evaluated for in vitro anti-mycobacterial activity against Mycobacterium tuberculosis H37Rv
Mycobacterium avium [9] = test: Compound was evaluated for in vitro anti-mycobacterial activity against MAC 101
Mycobacterium avium [10] = test: Compound was evaluated for in vitro anti-mycobacterial activity against Mycobacterium avium complex (MAC) ATCC 49601
Mycobacterium simiae = test: Compound was evaluated for in vitro anti-mycobacterial activity against Mycobacterium simiae
[11] = test system: Mycolicibacterium fortuitum; test: Compound was evaluated for in vitro anti-mycobacterial activity against Mycobacterium fortuitum
Mycobacterium xenopi = test: Compound was evaluated for in vitro anti-mycobacterial activity against Mycobacterium xenopi

Row | SMILES | No. of strains [2] | No. of strains [3] | MIC [4] [µg/mL] | MIC (Mycobacterium malmoense) [µg/mL] | MIC (Mycobacterium avium [9]) [µg/mL] | MIC (Mycobacterium avium [10]) [µg/mL] | MIC (Mycobacterium simiae) [µg/mL] | MIC [11] [µg/mL] | MIC (Mycobacterium xenopi) [µg/mL] | other results
1 | CC(=O)NC[C@H]1CN(c2ccc(N3CCS(=O)(=O)CC3)c(F)c2)C(=O)O1 | 4 | 1 |  |  |  |  |  |  |  | No. of strains [1]: 1
2 | CC(=O)NC[C@H]1CN(c2ccc(N3CC[S+]([O-])CC3)c(F)c2)C(=O)O1 |  |  | < 0.125 |  |  |  |  |  |  | 
3 | CC(=O)NC[C@H]1CN(c2ccc(N3CCSCC3)c(F)c2)C(=O)O1 [SUTEZOLID] | 2 | 2 |  | 2 (≈ 5.66 µM) | 0.5 (≈ 1.41 µM) | 4 (≈ 11.3 µM) | 2 (≈ 5.66 µM) | 8 (≈ 22.6 µM) | 2 (≈ 5.66 µM) | No. of strains [5]: 1; MIC (Mycobacterium avium [6]): 4 µg/mL (≈ 11.3 µM); MIC (Mycobacterium avium [7]): 2 µg/mL (≈ 5.66 µM); MIC [8]: < 0.125 µg/mL
4 | NNC(=O)c1ccncc1 [ISONIAZID] |  |  | 0.2 (≈ 1.46 µM) |  |  |  |  |  |  | 
5 | CC[C@H]1OC(=O)[C@H](C)[C@@H](O[C@H]2C[C@@](C)(OC)[C@@H](O)[C@H](C)O2)[C@H](C)[C@@H](O[C@@H]2O[C@H](C)C[C@H](N(C)C)[C@H]2O)[C@](C)(O)C[C@@H](C)CN(C)[C@H](C)[C@@H](O)[C@]1(C)O [AZITHROMYCIN] |  |  |  | 16 (≈ 21.4 µM) | 4 (≈ 5.34 µM) | 4 (≈ 5.34 µM) | 4 (≈ 5.34 µM) | > 64 | 1 (≈ 1.34 µM) | 
